{"source": "patent US20210038732A1", "about": "“ANTICANCER MICRORNA AND LIPID FORMULATIONS THEREOF” (INTERNA TECHNOLOGIES B.V., priority 2018, published 2021)", "key": {"H1299": {"test_system": "H1299", "assay": "Cell viability (MTS assay or cell count)", "type": "cell-based", "settings": "10 nM; NSCLC H1299; normalized to mock", "protocol": "(§1) Depending on cancer cell type 3000-6000 cells were seeded in a 96 well plate. After cells attached, they were transfected with different concentrations of miRNA-193a and viability was measured at different time points. Viability measurement was performed using CellTiter 96 AQueous One Solution Cell Proliferation Assay (Promega). 20 μL of MTS reagent was added to 100 μL of media in each well in 96-well plate and incubated for 2 hours at 37° C. Absorbance was measured at 490 nm for each sample in 96 well plate reader.\n(§2) Different biological effects of miRNA-193a-3p have been tested in various cancer cell lines (see Table 13). For this, various cells were treated with miRNA-193a at different concentrations (1, 3, 10 nM). For all experiments controls (untreated, mock and scrambled) were measured. […] Data shown in Table 13 are the results for miRNA-193a at 10 nM concentration at indicated time points. All the results have been quantified and normalized to the mock control.\n(§3) miRNA-193a treatment in various cancer cell lines decreased cell viability over time as measured by either an MTS assay or by cell count. It enhanced apoptosis induction over time as measured by a caspase 3/7 apoptosis assay. […] It is of note that due to intrinsic characteristics and gene mutation status of each cell line, performing one method to detect apoptosis is not always ideal for all cell lines."}, "Panc-1": {"test_system": "Panc-1", "assay": "Cell viability (MTS assay or cell count)", "type": "cell-based", "settings": "10 nM; Pancreas Panc-1; normalized to mock", "protocol": "as §1, §2, §3"}, "HCT116": {"test_system": "HCT116", "assay": "Cell viability (MTS assay or cell count)", "type": "cell-based", "settings": "10 nM; Colon HCT116; normalized to mock", "protocol": "as §1, §2, §3"}, "EMT6": {"test_system": "EMT6", "assay": "Cell viability (MTS assay or cell count)", "type": "cell-based", "settings": "10 nM; TNBC EMT6; normalized to mock", "protocol": "as §1, §2, §3"}, "H1975": {"test_system": "H1975", "assay": "Cell viability (MTS assay or cell count)", "type": "cell-based", "settings": "10 nM; NSCLC H1975; normalized to mock", "protocol": "as §1, §2, §3"}, "4T1 mouse tumor cells": {"test_system": "4T1 mouse tumor cells", "assay": "4T1 re-challenge of previously treated mice, with or without T-cell depletion (Example 4.11)", "type": "in vivo", "from_the_text": "In all cases, monoclonal antibodies were delivered to mice by intraperitoneal injection in 200p1 phosphate-buffered saline. For depletion and neutralization experiments, CD4 (clone GK1.5) and CD8 (clone 2.43) antibodies were used simultaneously. Depletion or neutralization was commenced a week before tumor cell inoculation. For CD4+ and CD8+ T-cell depletion, […] of the indicated antibody was delivered on a QOD×3 schedule in the first week and then a Q3D schedule for 3 more weeks. Depletion of the desired T-cell population(s) was confirmed on whole blood by flow cytometry (data not shown). 100 μL whole blood was drawn per animal on day 0 and day 14 post tumor cell inoculation (day 0=24h post QOD×3, Day 14: 24h post QOD×3+Q3D for 2 weeks). Then mixed with the antibodies. After vortexing gently, the mix was incubated for 30 minutes in the dark at room temperature (RT). 2 ml of 1× FACS lysing buffer was added to the solution and incubated for 10 min at RT. Then the solution mix was centrifuged for 5 min and the supernatant was removed. Finally, the cells were resuspended in 150p1 of staining buffer and analyzed on a cytometer. All flow cytometry antibodies (anti-CD45-PerCP-cy55 (clone: 30-F11), anti-CD3-FITC (clone: 17A2) anti-CD4-APC (clone: RM4-4), anti-CD8-PE (clone: 53-6.7) were purchased from Biolegend except anti-CD3 from BD Biosciences. (QOD×3: every other day for 3 days, Q3D: every 3 days (Monday-Thursday)).\nTo investigate the T-cell mediated long-term immunity in miRNA-193a treated mice against 4T1 cancer cells, a new study with similar conditions to example 4.4 was performed. 5 days post-tumor inoculation, mice were randomized into 2 groups and received a similar treatment and dosing regimen as in example 4.4 (see Table 9, groups 1-2 only). After surgical removal of primary tumors when the group mean tumor volume reached 800 mm3, treatments were resumed and continued until day 58. […]"}, "A2058 melanoma cells": {"test_system": "A2058 melanoma cells", "assay": "Malachite Green Phosphate Assay (free phosphate generation)", "type": "cell-based, human", "settings": "miRNA-193a-3p at 10 nM, vs untreated, mock, scrambled", "protocol": "2000 A2058 melanoma cells were seeded per well in a 96 well plate. 24h after seeding, cells were transfected with different concentrations of miRNA-193a-3p, scrambled control, siNT5E and siPool as control. Malachite Green Phosphate Assay (Sigma Aldrich) was used to measure the liberation of phosphate from nucleoside triphosphates ATP following inhibition of CD39 (ENTPD1) and CD73 (NT5E) as target genes of miRNA-193a-3p 24h and 48h post transfection. The rapid colour formation from the reaction can be conveniently measured on a plate reader (600-660 nm)."}, "4T1": {"test_system": "4T1", "assay": "Cell motility, Boyden chamber assay", "type": "cell-based, mouse", "settings": "10 nM", "protocol": "To check the migratory ability of cells, a Boyden Chamber assay was performed, which is based on a chamber of two medium-filled compartments separated by a […] pore size membrane (BD falcon). In this assay, depending on cell type 60,000-120,000 cells were seeded in the upper compartment of the membrane in serum free medium and were allowed to migrate through the pores of the membrane into the lower compartment, in which serum is present in the media. The serum acts as a chemoattractant. After an appropriate incubation time, the membrane between two compartments was fixed, stained and 6 different images from each membrane were taken. The number of migratory cells were counted using Image J analysis.\nDifferent biological effects of miRNA-193a-3p have been tested in various cancer cell lines (see Table 13). For this, various cells were treated with miRNA-193a at different concentrations (1, 3, 10 nM). For all experiments controls (untreated, mock and scrambled) were measured. All assays were performed at 24h, 48h and 72h time points. […] All the results have been quantified and normalized to the mock control.\nmiRNA-193a treatment in various cancer cell lines decreased cell viability over time as measured by either an MTS assay or by cell count. It enhanced apoptosis induction over time as measured by a caspase 3/7 apoptosis assay. […]"}}}
{"substance": "miRNA-193a: duplex of the miRNA-193a-3p of SEQ ID NO: 218 (mimic, sense) with antisense strand SEQ ID NO: 219; naked in vitro, formulated in vivo (sense UGGGACUUUGUAGGCCAGUUTT; antisense AACUGGCCUACAAAGUCCCAGU; chemistry not given here; listed as Homo sapiens)", "values": [{"measurement": "Viability (96 h)", "setting": "H1299", "result": "↓↓ (Viability < 50%)"}, {"measurement": "Viability (96 h)", "setting": "Panc-1", "result": "↓↓ (Viability < 50%)"}, {"measurement": "Viability (96 h)", "setting": "HCT116", "result": "↓↓ (Viability < 50%)"}, {"measurement": "Viability (96 h)", "setting": "EMT6", "result": "↓↓ (Viability < 50%)"}, {"measurement": "Viability (96 h)", "setting": "H1975", "result": "↓↓ (Viability < 50%)"}, {"measurement": "4T1 tumor growth after second re-challenge", "setting": "4T1 mouse tumor cells; previously treated mice depleted for T cells (anti-CD4 + anti-CD8)", "result": "resulted in 4T1 tumor growth"}, {"measurement": "4T1 tumor growth after second re-challenge", "setting": "4T1 mouse tumor cells; previously treated mice not depleted for T cells", "result": "did not show a palpable 4T1 tumor"}, {"measurement": "Tumor re-growth after 4T1 re-challenge", "setting": "4T1 mouse tumor cells; re-challenge day 76, followed up to 3 weeks, vs naïve mice", "result": "did not develop any palpable tumor"}, {"measurement": "Free phosphate generation", "setting": "A2058 melanoma cells", "result": "reduced the level of free phosphate production"}, {"measurement": "Motility (18 to 24 h)", "setting": "4T1", "result": "↓"}]}
